Legend:
[1] = system: platelet aggregation (ADP); experiment: Platelet aggregation inhibitory activity, ADP-induced (Born's turbidimetry, rabbit PRP); assay type: cell-based, male rabbit (NZW); settings: Oryctolagus cuniculus, ADP 7.5 μM final, 37° C.
Experimental: (§1) Pharmacological Experiment 1 Platelet aggregation inhibitory activity
(§2) (1) Preparation of platelet rich plasma (PRP):
(§3) The blood was collected from the carotid of a male rabbit without anesthesia (NZW species, body weight; 2-3 kg) with mixing thereof with 1/10 volume of citric acid. The blood thus obtained was separated and put into plastic test tubes (each about 7 ml), and centrifuged at 900 rpm for 15 minutes at room temperature to give a turbid supernatant as a platelet rich plasma (PRP). The residue from which PRP is separated was centrifuged at 3000 rpm for 10 minutes, and the supernatant was collected as a platelet poor plasma (PPP). The PRP was diluted with PPP so that the concentration thereof was adjusted to […], and used in the platelet aggregation inhibitory activity test.
(§4) (2) Method for platelet aggregation inhibitory activity test:
(§5) The platelet aggregation was tested according to Born's turbidimetry. That is, a test compound was dissolved in dimethylformamide, and the test compound solution (1 μl) thus obtained was put into a cuvette, and thereto was further added PRP (200 μl). Immediately thereafter, the cuvette was set into an apparatus for determining platelet aggregation activity, PAM-8T (manufactured by Mevanix Inc.), and the mixture was incubated at 37° C. Precisely three minutes thereafter, a solution of adenosine diphosphate (ADP, PA test ADP [MCM], purchased by MC Medical Ltd.) in physiological saline solution or a collagen solution (Collagenreagent Horm, purchased by MC Medical Ltd.) (20 μl) was added thereto. The final concentration of the ADP solution or the collagen solution was 7.5 μM or 20 μg/ml, respectively.
(§6) The maximum aggregation rate and the aggregation inhibitory rate were calculated by the following equations. [formula]
(§7) IC50, which is a concentration of the test compound being required to inhibit the platelet aggregation reaction by 50%, was determined from the aggregation inhibitory rates at two different concentrations of a test compound.

[2] = system: platelet aggregation (collagen); experiment: Platelet aggregation inhibitory activity, collagen-induced (Born's turbidimetry, rabbit PRP); assay type: cell-based, male rabbit (NZW); settings: Oryctolagus cuniculus, collagen 20 μg/ml final, 37° C.
Experimental: as §1, §2, §3, §4, §5, §6, §7

[3] = system: death induced by pulmonary infarction in mice; experiment: Antithrombotic activity: inhibition of death by collagen-induced pulmonary infarction in mice; assay type: in vivo, male ICR mice; settings: Mus musculus, 1 h; 30 mg/kg oral, 10 minutes before i.v. collagen; lethality in an hour; read-out: Pulmonary infarction inhibitory activity
Description: Pharmacological Experiment 2 Antithrombotic activity
Antithrombotic activity of the test compounds was estimated by an inhibitory activity of the test compound by oral administration against death induced by pulmonary infarction in mice which was introduced by intravenous administration of collagen (pulmonary infarction inhibitory activity).
Male ICR mice (5-week old, body weight; about 25 g) was fasted overnight, and separated into groups (15 mice per each group) and numbered. A test compound solution, which was prepared by suspending a test compound in 1% hydroxypropylmethyl cellulose 2910 TC-5 (HPMC, manufactured by Shin-etsu Chemical Co., Ltd.), was orally administered to the mice, and 10 minutes thereafter, a collagen solution (the method for preparation thereof and a dose thereof are explained hereafter) was injected to the mice at the tail vein at the constant rate. The lethality of the mice was determined by the number of mice which were died in an hour after the administration of collagen solution. The antithrombotic activity of the test compound was estimated by the inhibitory rate (%) of the lethality of the mice. The collagen solution was prepared by dissolving collagen (Type III, manufactured by Sigma Chemical Ltd.) in 0.05 M acetic acid solution containing 2 mM calcium chloride and 5% glucose at 4° C. so that the final concentration of collagen was adjusted to 2.5 mg/ml, and then the pH value thereof was adjusted to pH 7.4 with sodium hydroxide the day before the experiment. The collagen solution was incubated with stirring at 37° C. for two hours, and then further stirred at room temperature overnight. Just before the experiment, the pH value of the collagen solution was adjusted again to pH 7.4. The amount of the collagen solution which was injected at the tail vein was previously determined so that the lethality by pulmonary infarction induced thereby became about 75%.

[4] = system: left common carotid artery injured by balloon; experiment: Intima thickening inhibitory activity after balloon injury (3H-thymidine in carotid artery); assay type: in vivo, male SD rats; settings: Rattus norvegicus; dose 30 mg/kg, oral
Experimental: Pharmacological Experiment 3 Intima thickening inhibitory activity
Male SD rats (6-week old) were separated into groups (8 rats per each group) and numbered. A test compound solution, which was prepared by suspending a test compound in 1% hydroxypropylmethyl cellulose 2910 TC-5 (HPMC, manufactured by Shin-etsu Chemical Co., Ltd.) was orally administered to the rats. In the control group, 1% HPMC solution was orally administered instead of the test compound solution. One or two hours thereafter, two french balloon catheters (manufactured by Baxter Travenol Inc.) were inserted into the left common carotid artery of the rats, and the artery was injured by abrading five times with a balloon. The day of balloon abrasion was considered as Day 0. On the following day (Day 1), a test compound was orally administered to the rats two times a day (in the morning and in the evening). On Day 2, 1.48 MBq/ml of ^3 H-thymidine (dose: 5 ml/kg, manufactured by NEN Research Products, Ltd.) was injected at the tail vein of the rats about one hour after the administration of the test compound so that the time after the balloon injury was fixed to the same in each rat. Precisely 45 minutes after the injection of ^3 H-thymidine at the tail veil, the common carotid artery of the rats was taken out.
In the test compound-treated group, only the left common carotid artery which was injured by balloon was taken out, and in the control group, both the left and right common carotid arteries were taken out. The common carotid artery thus obtained was cut to pieces of exact 1 cm long, and the unnecessary portions such as the outer membrane or the nerves were completely removed. The common carotid artery was put into a glass vial, and thereto was added a 0.5 N sodium hydroxide (0.5 ml), and the mixture was incubated at 37° C. overnight to be solubilized. The mixture was neutralized with a 5 N hydrochloric acid (0.05 ml), and thereto was further added an aqueous hydrogen peroxide solution (0.1 ml). Aquasol II (10 ml, manufactured by Du Pont Co.) was added thereto, and the mixture was well stirred and then allowed to stand for 30 minutes. The radioactivity of tritium in the mixture was counted by liquid scintillation counter. The intima thickening inhibitory activity of the test compound was calculated by the following equation. [formula] L (c): The amount of tritium in the left common carotid artery in the control group (dpm)
R (c): The amount of tritium in the right common carotid artery in the control group (dpm)
L: The amount of tritium in the left common carotid artery in the test compound-treated group (dpm)

[5] = molecular target: T1, cGMP-inhibited cAMP phosphodiesterase (PDE3) (Homo sapiens, UniProt Q14432); experiment: cGMP-inhibited cAMP phosphodiesterase (PDE3) inhibitory activity; assay type: biochemical; settings: 0.4 μM [8-3H]cAMP, pH 8.0, 30° C., 15 minutes; recombinant enzyme from Sf9; read-out: PDE inhibitory activity IC50
T1 construct: made in house; host or cells: insect cell Sf9, baculovirus expression system
T1 sequence (Q14432 whole entry): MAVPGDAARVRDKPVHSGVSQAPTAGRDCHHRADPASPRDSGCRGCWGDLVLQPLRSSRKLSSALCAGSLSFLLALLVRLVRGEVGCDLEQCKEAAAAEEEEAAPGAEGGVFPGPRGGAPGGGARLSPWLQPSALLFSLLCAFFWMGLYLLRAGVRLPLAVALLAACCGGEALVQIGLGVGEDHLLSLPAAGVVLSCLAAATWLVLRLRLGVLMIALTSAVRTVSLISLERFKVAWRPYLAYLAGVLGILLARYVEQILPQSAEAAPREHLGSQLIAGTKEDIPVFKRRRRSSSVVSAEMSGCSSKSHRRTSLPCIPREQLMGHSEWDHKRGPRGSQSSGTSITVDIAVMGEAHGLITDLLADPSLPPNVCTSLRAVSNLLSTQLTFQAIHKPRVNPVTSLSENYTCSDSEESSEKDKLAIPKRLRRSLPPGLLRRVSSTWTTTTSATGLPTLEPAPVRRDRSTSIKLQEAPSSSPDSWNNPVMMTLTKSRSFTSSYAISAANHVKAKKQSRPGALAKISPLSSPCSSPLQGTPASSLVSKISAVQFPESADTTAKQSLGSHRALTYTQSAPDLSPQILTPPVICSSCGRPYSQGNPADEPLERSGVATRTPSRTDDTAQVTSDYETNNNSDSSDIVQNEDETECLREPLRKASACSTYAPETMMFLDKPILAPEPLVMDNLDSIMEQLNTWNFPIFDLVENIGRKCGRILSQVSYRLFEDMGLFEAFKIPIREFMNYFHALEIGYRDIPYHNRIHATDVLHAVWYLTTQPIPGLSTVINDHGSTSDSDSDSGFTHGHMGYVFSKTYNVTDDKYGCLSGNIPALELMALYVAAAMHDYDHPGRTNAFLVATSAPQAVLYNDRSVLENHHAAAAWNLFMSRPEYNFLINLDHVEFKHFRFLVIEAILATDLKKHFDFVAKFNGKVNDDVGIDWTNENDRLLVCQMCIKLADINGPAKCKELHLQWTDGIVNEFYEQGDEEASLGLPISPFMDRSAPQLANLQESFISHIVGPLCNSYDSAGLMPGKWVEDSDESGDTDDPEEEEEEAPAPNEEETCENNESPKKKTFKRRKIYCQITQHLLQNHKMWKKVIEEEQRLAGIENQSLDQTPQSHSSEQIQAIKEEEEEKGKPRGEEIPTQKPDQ

Row | Compound | IC50 [1] [nM] | IC50 [2] [nM] | inhibition in vivo at 30 mg/kg [3] [%] | inhibition in vivo at 30 mg/kg [4] [%] | IC50 [5] [nM]
1 | CCC(O)CN(C(=O)NCCCOc1ccc2[nH]c(=O)ccc2c1)C1CCCCC1 (centres unmarked) [Ex. 10] | 400 | 300 | 74 | 34.2 | 24.3
2 | CN(CCCOc1ccc2[nH]c(=O)ccc2c1)C(=O)N(C)C1CCCCC1 [Ex. 12, 6-[3-(1,3-dimethyl-3-cyclohexylureido)propoxy]carbostyril] | 31600 | 20500 | 100 | 21.1 | 197
3 | O=C(NCCCOc1ccc2[nH]c(=O)ccc2c1)N(C1CC1)[C@@H]1CCCC[C@H]1OCCCO [Ex. 17, (R,R)-(-)-6-{3-[3-[trans-2-(3-hydroxypropoxy)cyclohexyl]-3-cyclopropylureido]propoxy}carbostyril] | 140 | 2390 | 100 | 16 | 60.8
4 | CN(NC(=O)NCCCOc1ccc2[nH]c(=O)ccc2c1)C1CCCCC1 [Ex. 28] | 110 | 100 | 100 | 27.8 | 0.826

— US6143763A, “Carbostyril derivatives” (D. Western Therapeutics Institiute, priority 1995, dated 2000)
